Measured values as given in patent US12606556B2, “TYK-2 inhibitor” (BEIGENE, LTD., priority 2020, dated 2026).

How the values were obtained:
[1] = system: JAK1/p-STAT3(Tyr705) activated by IL-6 in TF-1 cell line; assay: IL-6-JAK1/p-STAT3(Tyr705) inhibition cellular assay; format: cell-based; settings: Homo sapiens, 0.5 h; TF-1 cells, IL-6 50 ng/ml, 30 min; read-out: Cellular assay pSTAT3/IL-6 IC50
From the text: Assay D: IL-6-JAK1/p-STAT3(Tyr705) Inhibition IC50 Cellular Assay
To evaluate the inhibition effect of compounds disclosed herein on JAK1/p-STAT3(Tyr705) activated by IL-6 in TF-1 cell line, TF-1 cells were collected and washed 3 times by DPBS and resuspended in RPMI-1640 (phenol red free, Gibco, Cat #11835-030) with 0.1% FBS (Gibco, Cat #10099, Lot #1891605), without GM-CSF(R&D systems,Cat #215-GM-050), starved overnight. Cells were collected and resuspended in 1640 medium (phenol red free, Gibco, Cat #11835-030) with 0.1% BSA, and 12.5 μl/10×10^4/well cell suspension were seeded to the 96-well plate (Corning, Cat #3799). Then cells were treated with compounds diluted in 0.2% DMSO 1640 medium, at 37° C., 1 h. Dilution is done according to the following protocol: (1) make 500× compounds solution in DMSO from 5 mM by 4-fold dilution, total 8 doses were included; (3) make 2× compounds solution in assay medium by transferring 0.5 μl serial 500× stock solution into 125 μl assay medium; (4) 15 μl of 2× solution is added to cells and incubate at 37° C. for 1 h, the final compound conc. is 10000,2500,625,156.25,39,9.8,2.4 and 0.61 nM, respectively. After 1 h, cells were treated with 2.5 μl medium containing IL-6 at 37° C. (R&D systems, Cat #206-IL-010, final conc.50 ng/ml), 30 min. Following cells were lysed with 10 μl lysis buffer at RT, shaking on shaker for 1 h. 16 μL of cell lysate were transferred to a PE 384-well HTRF detection plate, and 4 μL of pre-mixed HTRF antibodies were added to each well. Covered the plate with a plate sealer, span 1000 rpm for 1 min, mix, Incubated overnight at room temperature. Read on BMG PheraStar with HTRF protocol (337 nm-665 nm-620 nm). IC 50 values were calculated by fitting dependent data to the four-parameter logistic model using dotmatics software. The assay was performed by using HTRF Phospho-STAT3(Tyr705) Cellular Assay Kit (Cisbio, Cat #62AT3PEG).

[2] = system: JAK2, TYK2/p-STAT4 (Tyr693) activated by IL-12 in NK-92 cell line; assay: IL-12-JAK2, TYK2/p-STAT4 (Tyr693) inhibition cellular assay; format: cell-based; settings: for IC50: NK92, 0.5 h, NK-92 cells, IL-12 40 ng/ml, 30 min, read-out: Cellular assay pSTAT4/IL-12 IC50; for Cellular assay Selectivity fold (TYK2/JAK1): pSTAT4/IL-12 vs pSTAT3/IL-6 cellular IC50
From the text: Assay C: IL-12-JAK2, TYK2/p-STAT4 (Tyr693) Inhibition IC50 Cellular Assay
To evaluate the inhibition effect of compounds disclosed herein on JAK2, TYK2/p-STAT4 (Tyr693) activated by IL-12 in NK-92 cell line, NK-92 cells were collected and washed 3 times by DPBS and resuspended in MEM-α(GIBCO,Cat #12561056) with 10% FBS (Gibco, Cat #10099, Lot #1891605), without IL-2 (R&D systems,Cat #202-IL), starved overnight. Cells were collected and resuspended in 1640 medium (phenol red free, Gibco, Cat #11835-030) with 0.1% BSA, and 12.5 μl/5×10^4/well cell suspension were seeded to the 96-well plate (Corning, Cat #3799). Then cells were treated with compounds diluted in 0.2% DMSO 1640 medium, at 37° C., 1 h. Dilution is done according to the following protocol: (1) make 500× compounds solution in DMSO from 5 mM by 4-fold dilution, total 8 doses were included; (3) make 2× compounds solution in assay medium by transferring 0.5 μl serial 500× stock solution into 125 μl assay medium; (4) 15 μl of 2× serial solution is added to cells and incubate at 37° C. for 1 h, the final compound conc. is 10000,2500,625,156.25,39,9.8,2.4 and 0.61 nM, respectively. After 1 h, cells were treated with 2.5 μl medium containing IL-12 at 37° C. (R&D systems, Cat #219-IL-005, final conc.40 ng/ml), 30 min. Following cells were lysed with 7.5 μl lysis buffer at RT, shaking on shaker for 1 h. 10 μL of cell lysate were transferred to a PE 384-well Proxiplate detection plate, and 5 μL of pre-mixed Alphascreen beads were added to each well. Covered the plate with a plate sealer, span 1000 rpm for 1 min, mix, Incubated overnight at room temperature. Read on BMG PheraStar with Alphascreen protocol. IC 50 values were calculated by fitting dependent data to the four-parameter logistic model using dotmatics software. The assay was performed by using AlphaLISA SureFire Ultra p-STAT4 (Tyr693) Assay Kit—High Volume (PE, Cat #ALSU-PST4-A-HV).

[3] = target: T1, JAK1-JH2 protein (aa 561-860, in-house) (Homo sapiens, UniProt P23458); assay: JAK1-JH2 biochemical assay (HTRF, blocking of JAK1-JH2 protein with its probe); format: binding; settings: 1.17 nM recombinant JAK1-JH2, Probe 2
T1 construct: JAK1-JH2 protein (aa 561-860, in-house); made in house
T1 sequence (P23458 561-860): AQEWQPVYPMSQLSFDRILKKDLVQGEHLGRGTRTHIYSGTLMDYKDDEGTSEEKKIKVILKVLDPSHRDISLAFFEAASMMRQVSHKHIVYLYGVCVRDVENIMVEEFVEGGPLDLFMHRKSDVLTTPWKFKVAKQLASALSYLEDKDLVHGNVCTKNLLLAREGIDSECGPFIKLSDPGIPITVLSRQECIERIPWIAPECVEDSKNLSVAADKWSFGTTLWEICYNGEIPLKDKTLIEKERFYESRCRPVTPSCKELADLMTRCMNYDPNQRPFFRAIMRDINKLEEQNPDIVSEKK
Experimental: Assay B: JAK1-JH2 Biochemical Assay
Compounds disclosed herein were tested for blocking of JAK1-JH2 protein (aa 561-860, in-house) with its probe in an assay based on Homogeneous Time Resolved Fluorescence. Compound dilution is done according to the following protocol: (1) Prepare 500× compounds solution in DMSO from 500 uM by 5-fold dilution, total 10 doses were included; (2) Prepare 10× compounds solution in an assay buffer containing 20 mM HEPES, pH 7.5, 10 mM MgCl2, 0.005% BSA, 2 mM DTT, 0.015% Brij-35 by transferring 1 μl serial 500× stock solution into 49 μl assay buffer. 4 μL of 1.17 nM recombinant JAK1-JH2 protein was pre-incubated with 1 μl of 10×serial dilution of compounds at room temperature for 0.5 hour. […] The HTRF signals (ex337 nm, em620 nm/665 nm) were read on BMG PHERAstar FS instrument. The inhibition percentage of JAK1 interaction with its probe in presence of increasing concentrations of compounds was calculated based on the ratio of fluorescence at 615 nm to that at 665 nm. The IC50 for each compound was derived from fitting the data to the four-parameter logistic equation by Dotmatics.

[4] = target: T2, TYK2-JH2 (aa 575-869, in-house) protein (Homo sapiens, UniProt P29597); assay: TYK2-JH2 biochemical assay (HTRF, blocking of TYK2-JH2 protein with its probe); format: binding; settings: for IC50: HTRF, 0.2 nM recombinant TYK2-JH2, Probe 1; for Biochemical assay Selectivity fold (TYK2/JAK1): TYK2-JH2 vs JAK1-JH2 biochemical IC50
T2 construct: TYK2-JH2 (aa 575-869, in-house) protein; made in house
T2 sequence (P29597 575-869): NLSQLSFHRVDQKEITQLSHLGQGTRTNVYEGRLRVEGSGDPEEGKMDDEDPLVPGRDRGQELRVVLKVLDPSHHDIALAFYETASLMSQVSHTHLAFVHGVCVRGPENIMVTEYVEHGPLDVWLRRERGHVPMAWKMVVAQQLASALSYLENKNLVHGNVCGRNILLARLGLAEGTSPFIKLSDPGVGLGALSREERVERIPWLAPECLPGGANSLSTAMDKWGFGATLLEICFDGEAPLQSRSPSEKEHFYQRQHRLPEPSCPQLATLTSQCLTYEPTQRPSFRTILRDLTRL
Experimental: Assay A: TYK2-JH2 Biochemical Assay
Compounds disclosed herein were tested for blocking of TYK2-JH2 (aa 575-869, in-house) protein with its probe in an assay based on Homogeneous Time Resolved Fluorescence.
Compound dilution is done according to the following protocol: (1) Prepare 500× compounds solution in DMSO from 500 uM by 5-fold dilution, total 10 doses were included; (2) Prepare 10× compounds solution in an assay buffer containing 20 mM HEPES, pH 7.5, 10 mM MgCl2, 0.005% BSA, 2 mM DTT, 0.015% Brij-35 by transferring 1 μl serial 500× stock solution into 49 μl assay buffer. 4 μl of 0.2 nM recombinant TYK2-JH2 protein was pre-incubated with 1 μl of 10×serial dilution of compounds at room temperature for 0.5 hour. Then 5 μl of 10 nM in-house Probe 1 (6-((3,5-dimethylphenyl)amino)-8-((4,26-dioxo-30-((3aS,4S,6aR)-2-oxohexahydro-1H-thieno[3,4-d]imidazol-4-yl)-7,10,13,16,19,22-hexaoxa-3,25-diazatriacontyl)amino)imidazo[1,2-b]pyridazine-3-carboxamide, KD=10 nM), 5 μl Mab Anti-6His Tb cryptate Gold (Cat: 61HI2TLB, Cisbio Bioassays) and Streptavidin-XL665(Cat: 610SAXLB, Cisobio Bioassays) mixture were added to plate and further incubated at room temperature for 1 hour. The HTRF signals (ex337 nm, em620 nm/665 nm) were read on BMG PHERAstar FS instrument. The inhibition percentage of TYK2 interaction with its probe in presence of increasing concentrations of compounds was calculated based on the ratio of fluorescence at […]. The IC50 for each compound was derived from fitting the data to the four-parameter logistic equation by Dotmatics.

| IC50 [1] | IC50 [2] | IC50 [3] | IC50 [4] | Biochemical assay Selectivity fold (TYK2/JAK1) [4] | Structure (SMILES) | Cellular assay Selectivity fold (TYK2/JAK1) [2] |
| --- | --- | --- | --- | --- | --- | --- |
| > 10000 nM | 309 nM | 1.2 nM | 0.08 nM | 15 fold | CNC(=O)c1nnc(NC(=O)C2CC2)cc1Nc1nc2ccc(OC3CN(C(C)=O)C3)cn2n1 [Example C4, 4-((6-((1-acetylazetidin-3-yl)oxy)-[1,2,4]triazolo [1,5-a]pyridin-2-yl)amino)-6-(cyclopro-panecarbox-amido)-N-methyl-pyridazine-3-carboxamide] | >32 fold |
| > 10000 nM | 68.4 nM | 1.21 nM | 0.099 nM | 12 fold | CNC(=O)c1nnc(NC(=O)C2CC2)cc1Nc1nc2ccc(OC3CN(C4CCOC4)C3)cn2n1 (stereo not drawn) [Example D1, 6-(cyclopropanecarboxamido)-N-methyl-4-((6-((1-(tetrahydrofuran-3-yl)azetidin-3-yl)oxy)-[1,2,4]triazolo[1,5-a]pyridin-2-yl)amino)pyridazine-3-carboxamide] | >146 fold |
| 4060 nM | 8.9 nM | 1.3 nM | 0.038 nM | 34 fold | [2H]C([2H])([2H])NC(=O)c1nnc(NC(=O)C2CC2)cc1Nc1nc2ccc(N3CCC3)cn2n1 [Example E3, 4-((6-(azetidin-1-yl)-[1,2,4]triazolo [1,5-a]pyridin-2-yl)amino)-6-(cyclopropanecarbox-amido)-N-(methyl-d3) pyridazine-3-carboxamide] | 453 fold |
| 5400 nM | 10 nM | 1.5 nM | 0.044 nM | 34 fold | CNC(=O)c1nnc(NC(=O)C2CC2)cc1Nc1nc2ccc(N3CC(CC(F)F)C3)cn2n1 [Example E4, 6-(cyclopropanecar-boxamido)-4-((6-(3-(2,2-difluoroethyl)azetidin-1-yl)-[1,2,4]triazolo[1,5-a]pyridin-2-yl)amino)-N-methylpyridazine-3-carboxamide] | 540 fold |

Continued, compound first:

| Structure (SMILES) | IC50 [1] | IC50 [2] | IC50 [3] | IC50 [4] | Biochemical assay Selectivity fold (TYK2/JAK1) [4] | Cellular assay Selectivity fold (TYK2/JAK1) [2] |
| --- | --- | --- | --- | --- | --- | --- |
| CNC(=O)c1nnc(NC(=O)C2CC2)cc1Nc1nc2ccc(OC3CN(C(=O)CC#N)C3)cn2n1 [Example C5, 4-((6-((1-(2-cyanoacetyl)azetidin-3-yl)oxy)-[1,2,4]triazolo[1,5-a]pyridin-2-yl)amino)-6-(cyclopro-panecarbox-amido)-N-methyl-pyridazine-3-carboxamide] | > 10000 nM | 1320 nM | 1.56 nM | 0.143 nM | 11 fold | >8 fold |
| CNC(=O)c1nnc(NC(=O)C2CC2)cc1Nc1nc2ccc(N3CCC3)cn2n1 [Example E1, 4-((6-(azetidin-1-yl)-[1,2,4]triazolo[1,5-a]pyridin-2-yl)amino)-6-(cyclopropanecarboxamido)-N-methylpyridazine-3-carboxamide] | 6330 nM | 13.3 nM | 1.6 nM | 0.047 nM | 34 fold | 475 fold |
| CNC(=O)c1nnc(NC(=O)C2CC2)cc1Nc1nc2ccc(N3CC(OC)C3)cn2n1 [Example E2, 6-(cyclopropanecarboxamido)-4-((6-(3-methoxyazetidin-1-yl)-[1,2,4]triazolo[1,5-a]pyridin-2-yl)amino)-N-methylpyridazine-3-carboxamide] | 9800 nM | 9.01 nM | 1.2 nM | 0.047 nM | 26 fold | 1087 fold |
| CNC(=O)c1nnc(NC(=O)C2CC2)cc1Nc1nc2ccc(N3CC(N(C)C)C3)cn2n1 [Example E5, 6-(cyclopropanecar-boxamido)-4-((6-(3-(dimethylamino)azetidin-1-yl)-[1,2,4]triazolo [1,5-a]pyridin-2-yl)amino)-N-methylpyridazine-3-carboxamide] | 7270 nM | 16 nM | 1.7 nM | 0.064 nM | 26 fold | 454 fold |
